Experimental data published in patent US10183010B2, “2-oxo-1,2-dihydrobenzo[cd]indole compound and use thereof” (Guangzhou Institutes of Biomedicine and Health, Chinese …, priority 2015, dated 2019).

Key:
BRD4(1) protein [1] = target: T1, BRD4(1) protein (Homo sapiens, UniProt O60885); experiment: AlphaScreen assay: disruption of the interaction of BRD4(1) and biotinylated acetylated peptide; assay type: binding; details: BRD4(1) protein with H4KAc4-biotin peptide, 20° C.
T1 construct: BRD4(1) protein, 500 nM; inferred from the use of nickel acceptor beads
In short: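 BRD4(1) at 500 nM was incubated with biotinylated tetra-acetylated H4 peptide (50 nM) in MOPS/CHAPS/NaF/BSA buffer, pH 7.4, with streptavidin donor and nickel acceptor beads (50 μg/mL each). Incubation ran 1 h at 20 °C in the dark before AlphaScreen signal read-out.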

BRD4(1) protein [2] = target: T1, BRD4(1) protein; experiment: TSA assay: thermodynamic stability of BRD4(1); assay type: binding; details: SYPRO Orange, 30° C. to 80° C.
In short: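 Thermal shift of BRD4(1) protein (100 μM stock) with compound (400 μM stock) in MOPS 50 mM/NaCl 150 mM/10% glycerol, pH 7.5, SYPRO Orange 1:1000, pre-incubated on ice 30 min, DMSO <2%. Melting ramp 30–80 °C at 0.5 °C/min with fluorescence read every 0.5 °C; ΔTm reported.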

`CCN1C(=O)c2cccc3c(NCc4ccc(Cl)cc4)ccc1c23` [Example 61, 6-((4-chlorobenzyl)amino)-1-ethylbenzo[cd]indol-2(1H)-one] was tested, and the IC50 (BRD4(1) protein [1]) was > 20 µM and the “TSA ΔTm” value (BRD4(1) protein [2]) was 2 °C.

With `CCCCNS(=O)(=O)c1ccc2c3c(cccc13)C(=O)N2CCC` [Example 114, N-butyl-2-oxo-1-propyl-1,2-dihydrobenzo[cd]indole-6-sulfonamide] the IC50 (BRD4(1) protein [1]) was > 20 µM and the “TSA ΔTm” value (BRD4(1) protein [2]) was 3 °C.

For `CCN1C(=O)c2cccc3c(S(=O)(=O)NCCN4CCN(C(=O)OC(C)(C)C)CC4)ccc1c23` [Example 109, tert-butyl 4-(2-(1-ethyl-2-oxo-1,2-dihydrobenzo[cd]indole-6-sulfonamido)ethyl)piperazine-1-carboxylate], the IC50 (BRD4(1) protein [1]) was 8.27 µM and the “TSA ΔTm” value (BRD4(1) protein [2]) was 1 °C.

In the case of `CCN1C(=O)c2cccc3c(NS(=O)(=O)Cc4cccc(F)c4)ccc1c23` [Example 38, N-(1-ethyl-2-oxo-1,2-dihydrobenzo[cd]indol-6-yl)-1-(3-fluorophenyl)methanesulfonamide], the IC50 (BRD4(1) protein [1]) is reported as > 20 µM and the “TSA ΔTm” value (BRD4(1) protein [2]) is reported as 3.9 °C.

`CCN1C(=O)c2cccc3c(S(=O)(=O)NC4CCCCCC4)ccc1c23` [Example 107, N-cycloheptyl-1-ethyl-2-oxo-1,2-dihydrobenzo[cd]indole-6-sulfonamide] was tested, and the IC50 (BRD4(1) protein [1]) was 0.45 µM and the “TSA ΔTm” value (BRD4(1) protein [2]) was 7 °C.

With `CCN1C(=O)c2cccc3c(NS(=O)(=O)Cc4ccc(C(=O)OC)cc4)ccc1c23` [Example 36, methyl4-((N-(1-ethyl-2-oxo-1,2-dihydrobenzo[cd]indol-6-yl)sulfamoyl)methyl)benzoate] the IC50 (BRD4(1) protein [1]) was 7.31 µM and the “TSA ΔTm” value (BRD4(1) protein [2]) was 1.2 °C.
